In paper PMC8406801, “Naringenin Inhibits Platelet Activation and Arterial Thrombosis Through Inhibition of Phosphoinositide 3-Kinase and Cyclic Nucleotide Signaling” (Frontiers in Pharmacology, 2021):
Values joined by “and” are separate entries in the source; they are usually repeats but may differ in a detail not shown here. Equal values may be shown once.

Key:
PRP of treated rats = assay: Ex vivo ADP (5 μM)-induced platelet aggregation after oral dosing; assay type: in vivo, rat; details: for Aggregation (%): ex vivo, Figure 8A; for ADP-induced platelet aggregation ex vivo: rats, ADP 5 μM, mean ± SD, n = 6, vehicle 63.2 ± 3.6
Experimental: (§1) Male SD rats were randomly divided into 5 groups with 6 rats in each group. […] Sixty minutes after the last sample treatment, blood was drawn from the abdominal aorta of rats into the siliconized vacutainers containing 1:9 (v/v) 3.8% sodium citrate. The collected blood was centrifuged at 100 × g for 10 min at room temperature to obtain PRP. […] The platelet counts of PRP were adjusted to 4×10^8 cells/mL using PPP. PRP was incubated for 5 min at 37°C and then stimulated by ADP (5 μM). The maximum platelet aggregation rate was determined as mentioned above.

[1] = test system: integrin αIIbβ3 inside-out signaling (fibrinogen binding) in washed platelets; assay: ADP-stimulated fibrinogen binding (flow cytometry); assay type: cell-based, rat; details: ADP 10 μM; for Fibrinogen binding (%): single replicates; for fibrinogen binding: mean ± SD, n = 3, 55.67 ± 9.62% with ADP alone
Experimental: Flow cytometric assays were performed as described previously ([Wang et al., 2019]). ADP-stimulated P-selectin exposure and fibrinogen binding were determined in washed platelets. […] The platelets were immediately incubated with PE-labeled CD62P or FITC-labeled fibrinogen in the dark at room temperature for 15 min. The cells were finally fixed with 1% (v/v) paraformaldehyde prior to analysis using an Accuri C6 flow cytometer (BD Biosciences, United States).

PRP = assay: Clot retraction; assay type: cell-based, rat; details: PRP, 200, 400, and 800 μM, thrombin 1 U/mL, 15 min
Experimental: PRP was incubated with vehicle or different concentrations of naringenin for 10 min at 37°C. Clot retraction was initiated by adding fibrinogen (400 μg/ml) and thrombin (1 U/mL), and allowed to proceed at 37°C. Images were taken 15 min later.

[2] = test system: washed platelets on collagen-coated coverslips; assay: Platelet adhesion on collagen-coated surface; assay type: cell-based, rat; details: for Area (%) of platelets adherent on collagen: single replicates
Experimental: Washed platelets were treated with naringenin or vehicle at 37°C for 10 min in the presence of 2 mM CaCl2 ([Suzuki-Inoue et al., 2001]). The platelets were added to collagen-coated coverslips and incubated at 37°C for 45 min. After unbound platelets were removed by washing, adherent platelets were fixed with 4% paraformaldehyde, permeabilized with 0.1% Triton X-100 and stained with TRITC-conjugated phalloidin (1 μg/ml). Adherent platelets were viewed using an inverted fluorescence microscope (Nikon TE-2000S) and processed using Image J software.

[3] = test system: PDE extracts prepared from rat PRP (cAMP hydrolysis); assay: Phosphodiesterase activity in platelet extracts, hydrolysis of cAMP (HPLC); assay type: biochemical; details: vehicle = 100%, single replicates
Experimental: (§2) The effects of naringenin on PDE activity were determined using high-performance liquid chromatography (HPLC) ([Hu et al., 2011]). Briefly, PRP was pelleted by centrifugation for 10 min at 900 × g and homogenized in PBS containing 0.1% Triton X-100 using an ultrasonic homogenizer. After centrifugation at 12,000 × g for 20 min at 4°C, the supernatant was subjected to PDE activity assay.
(§3) DMSO vehicle or different concentrations naringenin were added to assay buffer (137 mM NaCl, 2.7 mM KCl, 8.8 mM Na2HPO4, 1.5 mM KH2PO4, 1 mM CaCl2, 1 mM MgCl2, pH 7,4) containing cAMP or cGMP. The reaction was initiated by adding 30 μL PDE extracts prepared from rat PRP as described above. Some extracts were boiled for 3 min to inactivate PDE before addition. After incubation for 30 min at […], the reaction was terminated by boiling the mixture for 3 min. Subsequently, the mixture was cooled on ice followed by centrifugation at 12,000 × g for 20 min at 4°C. The supernatant was subjected cAMP or cGMP assay using HPLC. PDE activity was expressed as percentages of the hydrolysis of cAMP or cGMP.

[4] = test system: PDE extracts prepared from rat PRP (cGMP hydrolysis); assay: Phosphodiesterase activity in platelet extracts, hydrolysis of cGMP (HPLC); assay type: biochemical; details: vehicle = 100%, single replicates
Experimental: as §2, §3

[5] = test system: Akt Ser473 phosphorylation; assay: Ex vivo immunoblotting of phospho-Akt (Ser473) in ADP-stimulated PRP of treated rats; set-up: species or system rat; details: for p-Akt Ser473 / t-Akt (Fold to Control) / p-Akt Ser473 / t-Akt (raw data): ex vivo, Figure 8C
Experimental: as §1
For in vitro platelet aggregation, aliquots of washed platelets were preincubated with vehicle or various concentrations of naringenin for 5 min and stimulated with ADP (10 μmol/L) under stirring at 37°C for 5 min. For ex vivo platelet aggregation, PRP was incubated at 37°C for 5 min and stimulated with ADP (5 μmol/L) under stirring at 37 °C. The platelet aggregation was terminated by adding ethylenediaminetetraacetic acid (EDTA; 10 mM). Total protein was prepared using RIPA lysis buffer and protein content was determined by bicinchoninic acid (BCA) protein assay kit. Equal amounts of platelet proteins (30 μg) were separated on 10% SDS polyacrylamide gel electrophoresis (SDS-PAGE) and then transferred to poly vinylidene difluoride (PVDF) membranes and subjected to western blot. Blots were blocked with TBS-Tween 20 containing 5% BSA and probed with primary antibodies diluted in blocking solution at 4°C overnight followed by incubation with the corresponding HRP secondary antibodies. The protein bands were visualized using enhanced chemiluminescence (ECL).
Blood was collected and PRP was obtained after the last treatment. Platelet aggregation was induced by ADP (5 μmol/L) (A). Data are expressed as means ± SD (n = 6). After ADP stimulation, platelet proteins were then extracted and analyzed by immunoblotting using PI3Kp110β antibody (B) and phospho-specific antibodies such as Akt^Ser473 (C), Akt^Thr308 (D) and ERK1/2^Thr202/Tyr204 (E). Total level of GAPDH was measured on each sample as a loading control. The blots shown are representative of three separate experiments. The relative protein expression levels were quantified by ImageJ 1.47v software. The level of relative protein expression obtained with vehicle control was taken as 1. R represents the level of relative protein expression in resting platelets. Data are expressed as means ± SD (n = 3). *p < 0.05, **p < 0.01, ***p < 0.001 compared with the vehicle control group (Con).
To further investigate the antiplatelet mechanisms of naringenin ex vivo, several signaling molecules such as PI3Kp110β, Akt and ERK were detected. After oral administration of naringenin (200, 400, and 800 mg/kg) to rats for 7 days, rat PRP was prepared and stimulated by ADP (5 μmol/L), and platelets were lysed to determine protein phosphorylation levels using western blot.

## O=C1C[C@@H](c2ccc(O)cc2)Oc2cc(O)cc(O)c21 [Naringenin]
PRP of treated rats; naringenin 200mg/kg
  Aggregation (%): 44.3% and 43.6% and 49.2% and 46.7% and 39.1% and 43%
PRP of treated rats; naringenin 400mg/kg
  Aggregation (%): 34.4% and 37.3% and 35.4% and 28% and 25.8% and 22.9%
PRP of treated rats; naringenin 800mg/kg
  Aggregation (%): 12.7% and 17.8% and 16.5% and 21.5% and 19.3% and 11.6%
PRP of treated rats; oral 200 mg/kg once a day for 7 days
  ADP-induced platelet aggregation ex vivo: 44.3 ± 3.4%
PRP of treated rats; oral 400 mg/kg once a day for 7 days
  ADP-induced platelet aggregation ex vivo: 30.6 ± 5.9%
PRP of treated rats; oral 800 mg/kg once a day for 7 days
  ADP-induced platelet aggregation ex vivo: 16.6 ± 3.8%
[1]; 200 μM
  Fibrinogen binding (%): 42.78% and 35.40% and 54.20%
[1]; 400 μM
  fibrinogen binding: 31.74 ± 5.85%
  Fibrinogen binding (%): 31.71% and 25.90% and 37.60%
[1]; 800 μM
  fibrinogen binding: 20.48 ± 4.63%
  Fibrinogen binding (%): 21.04% and 15.60% and 24.80%
PRP
  clot retraction: significantly reduced
[2]; 100 μM
  Area (%) of platelets adherent on collagen: 29.32% and 16.92% and 17.38%
[2]; 200 μM
  Area (%) of platelets adherent on collagen: 17.54% and 13.16% and 17.35%
[2]; 400 μM
  Area (%) of platelets adherent on collagen: 12.99% and 15.28% and 9.21%
[2]; 800 μM
  Area (%) of platelets adherent on collagen: 2.55% and 1.74% and 1.66%
[2]; 200, 400 and 800 μM
  platelet adhesion on collagen-coated surface: significantly reduced
[3]; 100 μM
  PDE activity (%): 78.12% and 75.15% and 93.45%
[3]; 200 μM
  PDE activity (%): 76.39% and 84.94% and 63.29%
[3]; 400 μM
  PDE activity (%): 79.01% and 85.41% and 68.34%
[3]; 800 μM
  PDE activity (%): 43.72% and 69.43% and 76.24%
[4]; 100 μM
  PDE activity (%): 55.89% and 98.26% and 70.79%
[4]; 200 μM
  PDE activity (%): 55.23% and 54.30% and 66.68%
[4]; 400 μM
  PDE activity (%): 64.97% and 53.69% and 55.23%
[4]; 800 μM
  PDE activity (%): 56.89% and 50.38% and 49.55%
[5]; naringenin 200mg/kg
  p-Akt Ser473 / t-Akt (Fold to Control): 0.3581 and 0.2265 and 0.3338
  p-Akt Ser473 / t-Akt (raw data): 0.3980 and 0.2517 and 0.3710
[5]; naringenin 400mg/kg
  p-Akt Ser473 / t-Akt (Fold to Control): 0.1353 and 0.0873 and 0.1300
  p-Akt Ser473 / t-Akt (raw data): 0.1504 and 0.0970 and 0.1445
[5]; naringenin 800mg/kg
  p-Akt Ser473 / t-Akt (Fold to Control): 0.1415 and 0.0868 and 0.1240
  p-Akt Ser473 / t-Akt (raw data): 0.1573 and 0.0965 and 0.1378
[5]; rats, oral 200, 400, and 800 mg/kg for 7 days, ADP 5 μmol/L
  phosphorylation of Akt at Ser473 in rat PRP ex vivo: significantly suppressed
